# pIC50: −log10 of the molar value.
# How the values were obtained:
# Assay type in all cases: biochemical
# JNK3 = JNK3 (Homo sapiens, UniProt P53779); experiment: In vitro JNK3 inhibition (Table 1)
# Procedure: (§1) In vitro assays for the determination of JNK activities are known in the art and exemplary assay formats are described herein.
# (§2) IC50 values in Table 1 were determined using the procedures as described in U.S. Pat. No. 8,450,353.
# JNK1 = JNK1 (Homo sapiens, UniProt P45983); experiment: In vitro JNK1 inhibition (Table 1)
# Procedure: as §1, §2
# JNK2 = JNK2 (Homo sapiens, UniProt P45984); experiment: In vitro JNK2 inhibition (Table 1)
# Procedure: as §1, §2
# JNK1, sequence (P45983 whole entry, species assumed): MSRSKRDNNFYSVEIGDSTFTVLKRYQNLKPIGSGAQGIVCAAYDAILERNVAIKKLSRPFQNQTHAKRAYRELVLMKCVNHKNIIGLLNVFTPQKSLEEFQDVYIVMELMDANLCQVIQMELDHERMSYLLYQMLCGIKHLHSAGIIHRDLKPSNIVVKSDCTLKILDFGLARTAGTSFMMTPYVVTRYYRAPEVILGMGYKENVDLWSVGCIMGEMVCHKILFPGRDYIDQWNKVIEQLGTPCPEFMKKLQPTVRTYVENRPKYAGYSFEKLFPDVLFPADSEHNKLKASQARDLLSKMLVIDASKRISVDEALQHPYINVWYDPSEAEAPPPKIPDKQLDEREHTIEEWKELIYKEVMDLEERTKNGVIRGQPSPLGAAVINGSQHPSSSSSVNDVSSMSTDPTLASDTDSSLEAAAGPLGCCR
# JNK3, sequence (P53779 whole entry, species assumed): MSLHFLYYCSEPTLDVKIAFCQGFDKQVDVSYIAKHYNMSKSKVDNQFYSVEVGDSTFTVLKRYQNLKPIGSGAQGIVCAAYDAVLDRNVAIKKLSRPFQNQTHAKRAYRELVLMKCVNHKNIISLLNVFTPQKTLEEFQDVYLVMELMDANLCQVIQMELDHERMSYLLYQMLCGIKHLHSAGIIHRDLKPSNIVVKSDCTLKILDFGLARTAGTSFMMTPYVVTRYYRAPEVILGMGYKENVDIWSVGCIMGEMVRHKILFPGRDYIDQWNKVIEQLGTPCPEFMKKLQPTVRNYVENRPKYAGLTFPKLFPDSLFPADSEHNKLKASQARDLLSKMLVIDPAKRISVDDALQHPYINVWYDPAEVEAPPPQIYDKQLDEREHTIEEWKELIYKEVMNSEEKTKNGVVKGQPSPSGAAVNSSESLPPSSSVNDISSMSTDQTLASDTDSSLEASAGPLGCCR
# JNK2, sequence (P45984 whole entry, species assumed): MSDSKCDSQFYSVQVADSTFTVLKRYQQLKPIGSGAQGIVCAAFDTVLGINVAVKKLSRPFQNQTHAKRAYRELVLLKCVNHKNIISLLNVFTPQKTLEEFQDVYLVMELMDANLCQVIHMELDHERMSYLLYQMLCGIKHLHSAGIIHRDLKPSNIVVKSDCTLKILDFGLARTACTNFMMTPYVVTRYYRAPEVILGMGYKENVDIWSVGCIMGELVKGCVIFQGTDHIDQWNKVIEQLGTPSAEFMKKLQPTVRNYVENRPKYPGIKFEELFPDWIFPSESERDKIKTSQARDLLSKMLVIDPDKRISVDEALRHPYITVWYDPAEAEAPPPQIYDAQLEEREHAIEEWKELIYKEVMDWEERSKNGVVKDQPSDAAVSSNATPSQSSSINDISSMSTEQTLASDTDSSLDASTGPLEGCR
Compound,pIC50 (JNK3),pIC50 (JNK1),pIC50 (JNK2)
"O=C(Cn1c(=O)ccc2cnccc21)Nc1scc(Br)c1-c1ncn[nH]1 [N-(4-bromo-3-(1H-1,2,4-triazol-5-yl)thiophen-2-yl)-2-(2-oxo-1,6-naphthyridin-1(2H)-yl)acetamide]",> 7.00,> 7.00,> 7.00
"O=C(Cc1cccc2cnccc12)Nc1scc(Br)c1-c1ncn[nH]1 [N-(4-bromo-3-(1H-1,2,4-triazol-5-yl)thiophen-2-yl)-2-(isoquinolin-5-yl)acetamide]",> 7.00,> 7.00,> 7.00
"O=C(Cn1c(=O)ccc2cc(F)ccc21)Nc1scc(Br)c1-c1ncn[nH]1 [N-(4-bromo-3-(1H-1,2,4-triazol-5-yl)thiophen-2-yl)-2-(6-fluoro-2-oxoquinolin-1(2H)-yl)acetamide]",> 7.00,> 7.00,> 7.00
"O=C(Cn1c(=O)ccc2cc(C(F)(F)F)ccc21)Nc1sc(Cl)cc1-c1ncn[nH]1 [N-(5-chloro-3-(1H-1,2,4-triazol-5-yl)thiophen-2-yl)-2-(2-oxo-6-(trifluoromethyl)quinolin-1(2H)-yl)acetamide]",5.00 to 7.00,,5.00 to 7.00
"O=C(Cn1c(=O)ccc2cc(Cl)ccc21)Nc1scc(Br)c1-c1ncn[nH]1 [N-(4-bromo-3-(1H-1,2,4-triazol-5-yl)thiophen-2-yl)-2-(6-chloro-2-oxoquinolin-1(2H)-yl)acetamide]",> 7.00,> 7.00,> 7.00
"O=C(Cc1cccc2ncccc12)Nc1scc(Br)c1-c1ncn[nH]1 [N-(4-bromo-3-(1H-1,2,4-triazol-5-yl)thiophen-2-yl)-2-(quinolin-5-yl)acetamide]",> 7.00,> 7.00,> 7.00
"COc1ccc(CC(=O)Nc2ccsc2-c2nc(C(C)(C)C)n[nH]2)cc1 [N-(2-(3-tert-butyl-1H-1,2,4-triazol-5-yl)thiophen-3-yl)-2-(4-methoxyphenyl)acetamide]",,,4.30 to 5.00
"O=C(Cn1c(=O)ccc2cc(Br)ccc21)Nc1scc(Br)c1-c1nc[nH]n1 [2-(6-bromo-2-oxoquinolin-1(2H)-yl)-N-(4-bromo-3-(1H-1,2,4-triazol-3-yl)thiophen-2-yl)acetamide]",> 7.00,> 7.00,> 7.00
"O=C(Cc1ccc2c(c1)OCCO2)Nc1ccsc1-c1ncn[nH]1 [N-(2-(1H-1,2,4-triazol-5-yl)thiophen-3-yl)-2-(2,3-dihydrobenzo[b][1,4]dioxin-6-yl)acetamide]",,,5.00 to 7.00
"O=C(Cc1cccc2ccccc12)Nc1ccsc1-c1nnco1 [N-(2-(1,3,4-oxadiazol-2-yl)thiophen-3-yl)-2-(naphthalen-1-yl)acetamide]",,,4.30 to 5.00
"Cn1ncnc1-c1ncsc1NC(=O)Cc1cccc2cnccc12 [2-(isoquinolin-5-yl)-N-(4-(1-methyl-1H-1,2,4-triazol-5-yl)thiazol-5-yl)acetamide]",,,5.00 to 7.00
"Cc1n[nH]c(-c2sccc2NC(=O)Cc2ccc(N3CCCC3=O)cc2)n1 [N-(2-(3-methyl-H-1,2,4-triazol-5-yl)thiophen-3-yl)-2-(4-(2-oxopyrrolidin-1-yl)phenyl)acetamide]",,,5.00 to 7.00
"COc1ccc(CC(=O)Nc2ccsc2-c2nc(C)n[nH]2)cc1 [2-(4-methoxyphenyl)-N-(2-(3-methyl-1H-1,2,4-triazol-5-yl)thiophen-3-yl)acetamide]",,,5.00 to 7.00
"COc1ccc(CC(=O)Nc2ccsc2-c2nc(C(F)(F)F)n[nH]2)cc1 [2-(4-methoxyphenyl)-N-(2-(3-(trifluoromethyl)-1H-1,2,4-triazol-5-yl)thiophen-3-yl)acetamide]",,,4.30 to 5.00
"O=C(CN1C(=O)CCc2ccccc21)Nc1ccsc1-c1c[nH]cn1 [N-(2-(1H-imidazol-4-yl)thiophen-3-yl)-2-(2-oxo-3,4-dihydroquinolin-1(2H)-yl)acetamide]",,,4.30 to 5.00
COc1ccc(CC(=O)Nc2sccc2-c2nnn(C)n2)cc1 [2-(4-methoxyphenyl)-N-(3-(2-methyl-2H-tetrazol-5-yl)thiophen-2-yl)acetamide],,,4.30 to 5.00

# The next lines start with the values.
pIC50 (JNK3),pIC50 (JNK1),pIC50 (JNK2),Compound
> 7.00,> 7.00,> 7.00,"O=C(Cn1c(=O)ccn2nccc12)Nc1scc(Cl)c1-c1ncn[nH]1 [N-(4-chloro-3-(1H-1,2,4-triazol-5-yl)thiophen-2-yl)-2-(5-oxopyrazolo[1,5-a]pyrimidin-4(5H)-yl)acetamide]"
> 7.00,> 7.00,> 7.00,"O=C(Cn1c(=O)ccc2ccc(F)cc21)Nc1scc(Br)c1-c1ncn[nH]1 [N-(4-bromo-3-(1H-1,2,4-triazol-5-yl)thiophen-2-yl)-2-(7-fluoro-2-oxoquinolin-1(2H)-yl)acetamide]"
> 7.00,> 7.00,> 7.00,"O=C(CN1C(=O)CCc2ncccc21)Nc1scc(Br)c1-c1ncn[nH]1 [N-(4-bromo-3-(1H-1,2,4-triazol-5-yl)thiophen-2-yl)-2-(2-oxo-3,4-dihydro-1,5-naphthyridin-1(2H)-yl)acetamide]"
> 7.00,> 7.00,> 7.00,"O=C(Cn1c(=O)ccc2cc(C(F)(F)F)c(F)cc21)Nc1scc(Br)c1-c1ncn[nH]1 [N-(4-bromo-3-(1H-1,2,4-triazol-5-yl)thiophen-2-yl)-2-(7-fluoro-2-oxo-6-(trifluoromethyl)quinolin-1(2H)-yl)acetamide]"
> 7.00,> 7.00,> 7.00,"O=C(Cc1cccc2ncc(F)cc12)Nc1scc(Br)c1-c1nc[nH]n1 [N-(4-bromo-3-(1H-1,2,4-triazol-3-yl)thiophen-2-yl)-2-(3-fluoroquinolin-5-yl)acetamide]"
> 7.00,> 7.00,> 7.00,"O=C(Cn1c(=O)ccc2cnc(C(F)(F)F)cc21)Nc1scc(Br)c1-c1ncn[nH]1 [N-(4-bromo-3-(1H-1,2,4-triazol-5-yl)thiophen-2-yl)-2-(2-oxo-7-(trifluoromethyl)-1,6-naphthyridin-1(2H)-yl)acetamide]"
> 7.00,> 7.00,> 7.00,"N#Cc1ccc2c(ccc(=O)n2CC(=O)Nc2scc(Cl)c2-c2nc[nH]n2)c1 [N-(4-chloro-3-(1H-1,2,4-triazol-3-yl)thiophen-2-yl)-2-(6-cyano-2-oxoquinolin-1(2H)-yl)acetamide]"
> 7.00,> 7.00,> 7.00,"O=C(CN1C(=O)CCc2cc(F)ccc21)Nc1scc(Br)c1-c1ncn[nH]1 [N-(4-bromo-3-(1H-1,2,4-triazol-5-yl)thiophen-2-yl)-2-(6-fluoro-2-oxo-3,4-dihydroquinolin-1(2H)-yl)acetamide]"
> 7.00,> 7.00,> 7.00,"N#Cc1csc(NC(=O)Cc2cccc3cnccc23)c1-c1ncn[nH]1 [N-(4-cyano-3-(1H-1,2,4-triazol-5-yl)thiophen-2-yl)-2-(isoquinolin-5-yl)acetamide]"
> 7.00,> 7.00,> 7.00,"O=C(CN1C(=O)CCc2ccccc21)Nc1scc(Cl)c1-c1ncn[nH]1 [N-(4-chloro-3-(1H-1,2,4-triazol-5-yl)thiophen-2-yl)-2-(2-oxo-3,4-dihydroquinolin-1(2H)-yl)acetamide]"
5.00 to 7.00,5.00 to 7.00,5.00 to 7.00,"CN(C)CCN(C(=O)Cn1c(=O)ccc2cc(C(F)(F)F)ccc21)c1scc(Cl)c1-c1nc[nH]n1 [N-(4-chloro-3-(1H-1,2,4-triazol-3-yl)thiophen-2-yl)-N-(2-(dimethylamino)ethyl)-2-(2-oxo-6-(trifluoromethyl)quinolin-1(2H)-yl)acetamide]"
> 7.00,> 7.00,> 7.00,"O=C(Cc1c(F)ccc2ncccc12)Nc1scc(Br)c1-c1ncn[nH]1 [N-(4-bromo-3-(1H-1,2,4-triazol-5-yl)thiophen-2-yl)-2-(6-fluoroquinolin-5-yl)acetamide]"
> 7.00,> 7.00,> 7.00,"Cn1cnc(-c2c(Cl)csc2NC(=O)Cn2c(=O)ccn3nc(C(F)(F)F)cc23)n1 [N-(4-chloro-3-(1-methyl-1H-1,2,4-triazol-3-yl)thiophen-2-yl)-2-(5-oxo-2-(trifluoromethyl)pyrazolo[1,5-a]pyrimidin-4(5H)-yl)acetamide]"
> 7.00,> 7.00,> 7.00,"O=C(Cn1c(=O)ccc2cc(F)c(F)cc21)Nc1scc(Br)c1-c1ncn[nH]1 [N-(4-bromo-3-(1H-1,2,4-triazol-5-yl)thiophen-2-yl)-2-(6,7-difluoro-2-oxoquinolin-1(2H)-yl)acetamide]"
> 7.00,> 7.00,> 7.00,"Cc1n[nH]c(-c2c(Cl)csc2NC(=O)CN2C(=O)CCc3ncccc32)n1 [N-(4-chloro-3-(3-methyl-1H-1,2,4-triazol-5-yl)thiophen-2-yl)-2-(2-oxo-3,4-dihydro-1,5-naphthyridin-1(2H)-yl)acetamide]"
,,4.30 to 5.00,Cc1csc(NC(=O)Cc2cccc3cnccc23)c1-c1nc2ccccc2s1 [N-(3-(benzo[d]thiazol-2-yl)-4-methylthiophen-2-yl)-2-(isoquinolin-5-yl)acetamide]
,,4.30 to 5.00,"Cc1nnc(-c2sccc2NC(=O)Cc2cccc3ccccc23)o1 [N-(2-(5-methyl-1,3,4-oxadiazol-2-yl)thiophen-3-yl)-2-(naphthalen-1-yl)acetamide]"
,,5.00 to 7.00,"Cc1csc(NC(=O)Cc2cccc3ncccc23)c1-c1ncn[nH]1 [N-(4-methyl-3-(1H-1,2,4-triazol-5-yl)thiophen-2-yl)-2-(quinolin-5-yl)acetamide]"
,,4.30 to 5.00,COc1ccc(CC(=O)Nc2ccsc2-n2cc(C)cn2)cc1 [2-(4-methoxyphenyl)-N-(2-(4-methyl-1H-pyrazol-1-yl)thiophen-3-yl)acetamide]
,,4.30 to 5.00,O=C(Cc1cccc2cnccc12)Nc1ccsc1-c1csc(Cl)n1 [N-(2-(2-chlorothiazol-4-yl)thiophen-3-yl)-2-(isoquinolin-5-yl)acetamide]
,,4.30 to 5.00,COc1ccc(CC(=O)Nc2ccsc2-c2ncco2)cc1 [2-(4-methoxyphenyl)-N-(2-(oxazol-2-yl)thiophen-3-yl)acetamide]

# Reference: patent publication US20190231751A1, “TREATMENT OF FIBROTIC DISORDERS WITH JUN N-TERMINAL KINASE INHIBITORS” (Imago Pharmaceuticals, Inc., priority 2016, published 2019)
